# Measurements as given in patent US20050215625A9, “Combination therapy for anticoagulation” (priority 2003, published 2005).
# Where two headings read alike, the source gives them in different places.
# Test system: anticoagulation level (International Normalized Ratio)
# Details: for variation from low to high doses of warfarin / warfarin dose, low to high: across the first 24 measures
# Method: Adult anticoagulation patients presenting to the practice site were informed of the study, and the opportunity to be a test subject. Subjects were required to complete a study entry data interview, provide informed consent, and present to the clinic once to twice weekly for INR evaluation. The control group and a second group (the algorithm group) of patients were provided warfarin alone as an anticoagulation agent, while the study group patients received warfarin and 100 μg of vitamin K in a single gelatin capsule from a single pharmacy. […] The study received clearance from the St. Mary's Medical Center Institutional Review Board, Galesburg, Ill.
# An initial study interview was conducted and identified a patient's sex, age, indication for anticoagulation, and prescription and nonprescription medication usage. Those who were appropriate for study and provided consent were required to present to the clinic for once or twice weekly INR testing.
# The control group (N=6) received their warfarin dosed by conventional tablet forms and presented to the office at least weekly for INR labs (more often if dosage changes were required).
# The algorithm group (N=6) received their warfarin based upon an algorithm devised by the investigators to standardize the adjustments and the dosing of warfarin in smaller increments than those available in conventional dosages of oral medication (tablets). The algorithm specified dosages of warfarin other than those used by the manufacturer, in order for the prescribing physician to specify smaller incremental dosage changes than those permitted with the standard dosages available.
# The purpose of having the algorithm group as a part of the study was to determine if the algorithm played a significant role in reducing nontherapeutic anticoagulation intervals. […] If a dosing adjustment was required due to a nontherapeutic INR, the dose of warfarin would be adjusted in a fixed increment and the time of the next INR set by reducing the interval.
# The second theory behind the algorithm is that at the lower warfarin doses, the interval between easily taken amounts is a significant dose change. For example, the increase in dosage between 1 mg and 2 mg daily is a 100 percent dose increase. In comparison, the increase between the 4 mg tab and the 5 mg tab is a 25 percent dose increase. In order to create smaller dosage steps between doses of warfarin, the various available tablets were halved along their scoring lines and the appropriate amount was placed into a gelatin capsule for easy daily dosing. For instance, a dose of 1.75 mg warfarin required one-half of a 2.5 mg tablet and one-half of a 1 mg tab to be placed into a gelatin capsule. A cooperating compounding pharmacist placed the daily doses of warfarin into gelatin capsules for the use of the patients in the algorithm group.
# The study group (N=12) received warfarin combined with 100 μg of vitamin K compounded into a gelatin capsule by the compounding pharmacist. The warfarin was dosed by the study algorithm, described above. Patients who randomized to this group received their current dose of warfarin along with the dose of vitamin K in the daily gelatin capsule. And as the INR fluctuated, the dose of warfarin was adjusted by the algorithm.
# The combination of warfarin and vitamin K was accomplished by adding fixed amounts of each into an orally dosed form. The doses of warfarin used within the study protocol were (in milligrams): 0.5, 1, 1.25, 1.5, 1.75, 2.0, 2.25, 2.5, 2.75, 3.0, 3.25, 3.5, 3.75, 4.0, 4.5, 5.0, 5.5, 6.0, 6.5, 7.0, 7.5, 8.0, 8.5, 9.0, 9.5, 10, 11, 12, 13, 15.
# [1] = algorithm only arm, average dose
# [2] = combination capsule group (dosed by algorithm) or standard care group
compound,measurement,setting,value
"CC(=O)CC(c1ccccc1)c1c(O)c2ccccc2oc1=O (centres unmarked) [warfarin alone, 3-(_-acetonylbenzyl)-4-hydroxycoumarin]",variation from low to high doses of warfarin,[1],25.3%
same,"warfarin dose, low to high",[1],4.71-6.30 mgs
same,variation from low to high doses of warfarin,[2],36.9%
same,"warfarin dose, low to high",[2],3.50-5.55 mgs
same,persons with a dosage change in their anticoagulation after a change in concomitant medical therapy,"control and algorithm arms, includes two subjects who had this occur twice",Eight
same,number of clinically safe anticoagulation levels (INR level between 2.0 and 3.0),"over six months, INR at least weekly, up to 35 INR measurements, combination group N=12 (100 μg vitamin K) vs control and algorithm groups combined, p=0.032",14.83
same,number of medically safe anticoagulation levels (INR level between 1.8 and 3.5),"over six months, INR at least weekly, combination group N=12 vs control and algorithm groups combined, p=0.048",18.42
same,number of medically unsafe INRs (INR less than 1.5 or greater than 4.9),"over six months, combination group N=12 vs control and algorithm groups combined, p=0.054, not significant",22.00
